Assay results: patent publication US20080015147A1, “Method for inhibiting neuronal cell death” (priority 2006, published 2008)

Key:
Format in all cases: cell-based, mouse
[1] = test system: N38 cells; test: Cell viability by Trypan Blue uptake; conditions: 48 hrs
Description: The proportion of viable cells in the samples was determined by measuring Trypan Blue uptake. At 48 hrs, the cells from the four pH treatments were suspended using 1 ml of Trypsin EDTA, centrifuged at 1600 RPM for 4 min and resuspended in 1 ml of BSS (Hank's Balanced Salt Solution) (Sigma, St. Louis). An aliquot of 0.5 ml of 0.04% Trypan Blue solution was transferred to a 1.5 ml tube, […] of BSS was added to 0.2 ml of the cell suspension; the samples were mixed thoroughly and the cell suspension-Trypan Blue mixture was allowed to stand for 10 minutes and then counted on a hemocytometer. Separate counts were kept for both viable and non viable cells.

[2] = test system: cleaved caspase 3; test: Caspase 3 cleavage by immunoblot; conditions: 48 hr; any pH condition for TCAP-1
Description: Detection of caspase 3 cleavage was determined at 48 hrs. The samples at each pH and control (see above) were lysed using total protein isolation lysis buffer (described above). An aliquot of 25 μl of each sample was combined with 25 μl of 2×20% sodium dodecyl sulphate (SDS) sample buffer and loaded onto a 4-10% HCL-Tris pre cast polyacrylamide gel (BioRad, Mississauga). The gel was run at 200 v for 35 min and proteins were electrotransfered to a Hybond-C nitrocellulose membrane (Amersham, Baie d'Urfé) for 75 min at 100 v. After transfer, the membrane was washed with 10 ml of PBS with 0.05% Tween 20 (PBST) for 5 min at room temperature (RT) and the membrane was incubated in 10 ml of PBST-milk for one hour at RT followed by 3 times for 5 min washes with 10 ml of PBST. The membrane was then incubated with cleaved caspase 3 primary antibody (Cell Signaling Technology, Beverly) at a titre of 1:500 in 6 ml of PBST-milk with gentle agitation overnight at 4° C. The membranes were washed 3 times for 5 min with 10 ml of PBST followed by membrane incubation with anti-rabbit horseradish peroxidase (HRP)-conjugated secondary antibody (Amersham, Baie d'Urfé) at 1:3000 in 6 ml of PBST-milk with gentle agitation for 1 hr at RT. […]

[3] = test system: N38 cells; test: Fluorescent microscopy of necrosis and apoptosis markers; conditions: 48 hrs
Description: N38 cells were cultured on poly-D-Lysine treated coverslips (VWR, Mississauga) in each of the four pH condition, and cells were washed twice with PBS, each fluorochrome was added to each well: 5 μl Fluorescein (FITC)-Annexin V in Tris EDTA buffer containing 0.1% BSA (Bovine serum albumin) and 0.1% NaN3, pH 7.5, 5 μl rhodamine EtD-III 200 μM in PBS and 5 μl 4′,6-Diamidino-2-phenylindole (DAPI) Hoechst 33342 5 μg/mL in PBS (Biotium, Inc. Hayward). The samples were incubated in the dark for 15 min, then washed before being placed on slides. The cells were viewed under a Leica DM4500 inverted fluorescent microscope and digitally analyzed using OpenLab software.
Annexin V labelled with fluorescein (FITC) was used to identify apoptotic cells in green. Ethidium homodimer III (EtD-III) is a positively charged nucleic acid probe, which is impermeable to live or apoptotic cells but stains necrotic cells with red fluorescence (rhodamine) and Hoechst 3342 (4′,6-Diamidino-2-phenylindole) (DAPI) emits bright blue fluorescence upon binding to DNA in living cells.

[4] = test system: superoxide dismutase; test: Superoxide dismutase western blot
[5] = test system: superoxide dismutase; test: Superoxide dismutase gene expression by real-time PCR; conditions: p<0.01

Substance: teneurin C-terminus associated peptide [TCAP-1]
- cell viability by trypan blue uptake ([1]; pH 6.8): significant decrease in the number of cells that took up the trypan blue stain
- cell viability by trypan blue uptake ([1]; pH 6.8, listed as TCAP): increased the number of viable cells
- cell viability by trypan blue uptake ([1]; pH 8.0): significant decrease in the number of cells that took up the trypan blue stain
- cell viability by trypan blue uptake ([1]; pH 8.0, listed as TCAP): increased the number of viable cells
- cell viability by trypan blue uptake ([1]; pH 8.4): significant decrease in the number of cells that took up the trypan blue stain
- cell viability by trypan blue uptake ([1]; pH 8.4, listed as TCAP): increased the number of viable cells
- caspase 3 cleavage product (17/19 kDa) on western blot [2]: could not be observed
- number of rhodamine-fluorescing (necrotic) cells ([3]; pH 6.8): decreased the number of rhodamine-fluorescing cells
- number of rhodamine-fluorescing (necrotic) cells ([3]; pH 6.8, listed as TCAP): significantly decreased the amount of necrotic cells
- number of rhodamine-fluorescing (necrotic) cells ([3]; pH 8.0): decreased the number of rhodamine-fluorescing cells
- number of rhodamine-fluorescing (necrotic) cells ([3]; pH 8.0, listed as TCAP): significantly decreased the amount of necrotic cells
- number of rhodamine-fluorescing (necrotic) cells ([3]; pH 8.4): decreased the number of rhodamine-fluorescing cells
- number of rhodamine-fluorescing (necrotic) cells ([3]; pH 8.4, listed as TCAP): significantly decreased the amount of necrotic cells
- superoxide dismutase protein expression ([4]; pH 6.8): no significant differences in the expression of the superoxide dismutase protein
- superoxide dismutase protein expression ([4]; pH 7.4): no significant differences in the expression of the superoxide dismutase protein
- superoxide dismutase protein levels ([4]; pH 8.0, p<0.05): reduced the pH-induced decline in superoxide dismutase levels
- superoxide dismutase protein levels ([4]; pH 8.4, p<0.01): reduced the pH-induced decline in superoxide dismutase levels
- superoxide dismutase gene expression vs vehicle ([5]; pH 7.4): increase over the vehicle treated cells
- superoxide dismutase gene expression vs vehicle ([5]; pH 8.4): increase over the vehicle treated cells
